From patent US6623933B1 (priority 1999, dated 2003)
Where a name gives a salt, the structure may show the parent alone.

Legend:
NR1/NR2C (NR1100) = NR1/NR2C (NR1100) (Rattus norvegicus, UniProt P35439+Q00961); experiment: cell-based
Description: Plasmids containing the NR1100 (NR1G) and NR2A cDNA inserts were kindly provided by Dr. Nakanishi (Kyoto University Faculty of Medicine, Kyoto, Japan). Plasmids containing the NR2B, NR2C and NR2D cDNA inserts were kindly provided by Dr. P. Seeburg (Heidelberg University, Heidelberg, Germany). Plasmids were linearized with appropriate restriction enzyme prior to in vitro transcription using the Message Machine kit (Ambion, Inc., Austin, Tex.).
Female, oocyte-positive Xenopus laevis frogs were purchased from Xenopus I (Dexter, Mich.). […] Oocytes were injected with 50 nL of RNA solutions using an electronic microinjector (Drummond Inc., Broomall, Pa.). […] The injected oocytes were used for experiments following 1-5 days of incubation in Barth's solution at 18-20° C.
The microelectrodes were fabricated from borosilicate glass capillaries with a programmed puller (Sutter Instrument Co., Calif.). Microelectrode resistance was 1-3 MΩ_when filled with 3 M KCl.
Except where otherwise stated, oocytes were clamped at a holding potential of −70 mV during data acquisition. The membrane current was filtered at 500 Hz and sampled at 100 Hz. Drugs were applied using a gravity-driven external perfusion system. The working volume of the recording chamber was 30 μl and the rate of the perfusion was 50 μl/sec. The drug application lasted 10 sec and was followed by 60 s wash. Data acquisition and external perfusion were controlled using custom-written software implemented in the SuperScope II development environment (GW Instruments, Mass.). All experiments were performed at room temperature of 22-24° C. Peak or steady-state current measurements were normalized and expressed as a fraction of the peak or steady-state control current measurements, which were performed before and after application of every single concentration of agonists or steroids.
Concentration-response data were analyzed by nonlinear regress ion using the logistic equation Response=Emax/(1+(EC50/c)^nH), where c is concentration, Emaxis the maximum response, nHis the Hill coefficient. The data are presented as mean±SEM. EC50values are averaged as logarithms (De Lean et al., Am. J. Physiol. 235: E97-E102 (1978))±the SEM of the log EC50. […] The pooled data were simultaneously fitted to the logistic equation, either with Emax and EC50 constrained to be identical in the presence and absence of PS, or allowing one or both to vary independently. […] This was regarded as indicating a significant treatment effect of PS, but the change in EC50and Emaxwas not considered significant. […] No attempt was made to test the generally small changes in nHfor statistical significance.

NR1011/NR2Dwt = biological target: T1, NR1011/NR2Dwt (Rattus norvegicus, UniProt P35439+Q62645); experiment: NR2 chimera study, Xenopus oocytes, Example 7; type: cell-based; settings: 100 μM PS; 300 μM NMDA; 50 μM Glycine
T1 construct: expressed in transfected cells; host or cells: Xenopus oocytes
Description: (§1) The chimeric receptors were generated by first introducing a series of silent restriction sites in both the NR2B and NR2D cDNA. The chimeric cDNAs were then constructed by replacing corresponding regions of one cDNA with that of the other. The silence site mutations were generated by a method involving PCR. […] This cassette was then ligated into the cDNA cut with the same two restriction enzymes.

NR1011/NR2Bwt = biological target: T2, NR1011/NR2Bwt (Rattus norvegicus, UniProt P35439+Q00960); experiment: NR2 chimera study, Xenopus oocytes, Example 7; type: cell-based; settings: 100 μM PS; 300 μM NMDA; 50 μM Glycine
T2 construct: expressed in transfected cells; host or cells: Xenopus oocytes
Description: as §1

NR1101/NR2A = NR1101/NR2A (Rattus norvegicus, UniProt P35439+Q00959); experiment: NMDA-induced currents of NR1 splice variants, Xenopus oocytes, Example 4; type: cell-based; design: expressed in transfected cells; host or cells: Xenopus oocytes injected with NR1101 and NR2A mRNA; settings: NR1101/2A; 100 μM PS; 200 μM NMDA+10 μM glycine
Experimental: Overnight cultures (500 ml) of transformed bacterial cells were prepared in order to grow sufficient quantities for maxiprep isolation of the plasmid CDNA. Maxipreps were done using a Sorvall RC-5B ultracentrifuge, Qiagen columns and cDNA was quantitated with spectrophotometry (OD260 and OD260/ OD280 ratio). The resulting plasmid cDNA was linearized by digestion with an appropriate restriction enzyme that cleaves distal to the cDNA insert (XhoI for NR2A or NotI for NR1100, NR1000, NR1111, NR1011, NR1101, NR1001). […] The samples were stored at −20° C. until use.
In vitro transcription was performed using the Ambion mMessage mMachine kit with T7 (NR1100, NR1000, NR1111, NR1011, NR1101, NR1001) RNA polymerase. The reaction was assembled on ice and allowed to incubate at 37° C. for 1-2 hr. The resulting mRNA was precipitated (reaction termination) using lithium chloride/5 mM EDTA solution and dissolved in RNase-free H2O. The concentration (OD260) and OD260/OD280 ratio (should be more than 1.5) was determined by spectrophotometer. The yield of mRNA was generally 15-30 μg. mRNA was stored at −80° C. until use.
Intracellular recording microelectrodes were fabricated from 100 μl borosilicate glass disposable micropipettes using a 2-step protocol on a standard horizontal Flaming-Brown micropipette puller.

NR1011/NR2B-D Chimera(I) = biological target: T3, NR1011/NR2B-D Chimera(I) (Rattus norvegicus, UniProt P35439+Q00960+Q62645); experiment: NR2 chimera study, Xenopus oocytes, Example 7; type: cell-based; settings: 100 μM PS; 300 μM NMDA; 50 μM Glycine
T3 construct: expressed in transfected cells; host or cells: Xenopus oocytes
Description: (§2) To produce the first subunit, 96% of the cytoplasmic COOH-terminal region of the NR2B subunit (residues 870 to 1482) were replaced with the corresponding region of the NR2D subunit (residues 892 to 1323).
as §1

[1] = biological target: T4, NR1011/NR2B-D Chimera (III) (Rattus norvegicus, UniProt P35439+Q00960, A556P/A573T/A605S/A700P/A704S/A794R/A827V/A830G/C588S/C838W/D557A/D591T/D676E/D715E/D716E/D769G/DEL851-864/E594R/E701D/E791M/E804D/F554Y/F580L/F677Q/F681L/F709Y/F784L/F842V/F846L/G611A/G707V/G713R/G741R/G771R/G787D/G826L/I530V/I568T/I766L/I780L/I834L/I837A/I868M/INS849[…]/K624R/K669R/K708R/L566C/L719T/L783F/M789I/N675Q/N697S/N806I/P598S/Q621E/Q662T/Q767H/Q775P/Q812K/Q845R/R593K/R682K/R693K/R712P/R742K/S539A/S570V/S599T/S633L/S678Y/S720Q/S759T/T723A/T798S/T835V/V576I/V776I); experiment: NR2 chimera study, Xenopus oocytes, Example 7; type: cell-based; settings: 100 μM PS; 300 μM NMDA; 50 μM Glycine
T4 construct: expressed in transfected cells; host or cells: Xenopus oocytes
T4 sequence (Q00960 with tags, fused parts or gaps with the stated changes, other chains not shown): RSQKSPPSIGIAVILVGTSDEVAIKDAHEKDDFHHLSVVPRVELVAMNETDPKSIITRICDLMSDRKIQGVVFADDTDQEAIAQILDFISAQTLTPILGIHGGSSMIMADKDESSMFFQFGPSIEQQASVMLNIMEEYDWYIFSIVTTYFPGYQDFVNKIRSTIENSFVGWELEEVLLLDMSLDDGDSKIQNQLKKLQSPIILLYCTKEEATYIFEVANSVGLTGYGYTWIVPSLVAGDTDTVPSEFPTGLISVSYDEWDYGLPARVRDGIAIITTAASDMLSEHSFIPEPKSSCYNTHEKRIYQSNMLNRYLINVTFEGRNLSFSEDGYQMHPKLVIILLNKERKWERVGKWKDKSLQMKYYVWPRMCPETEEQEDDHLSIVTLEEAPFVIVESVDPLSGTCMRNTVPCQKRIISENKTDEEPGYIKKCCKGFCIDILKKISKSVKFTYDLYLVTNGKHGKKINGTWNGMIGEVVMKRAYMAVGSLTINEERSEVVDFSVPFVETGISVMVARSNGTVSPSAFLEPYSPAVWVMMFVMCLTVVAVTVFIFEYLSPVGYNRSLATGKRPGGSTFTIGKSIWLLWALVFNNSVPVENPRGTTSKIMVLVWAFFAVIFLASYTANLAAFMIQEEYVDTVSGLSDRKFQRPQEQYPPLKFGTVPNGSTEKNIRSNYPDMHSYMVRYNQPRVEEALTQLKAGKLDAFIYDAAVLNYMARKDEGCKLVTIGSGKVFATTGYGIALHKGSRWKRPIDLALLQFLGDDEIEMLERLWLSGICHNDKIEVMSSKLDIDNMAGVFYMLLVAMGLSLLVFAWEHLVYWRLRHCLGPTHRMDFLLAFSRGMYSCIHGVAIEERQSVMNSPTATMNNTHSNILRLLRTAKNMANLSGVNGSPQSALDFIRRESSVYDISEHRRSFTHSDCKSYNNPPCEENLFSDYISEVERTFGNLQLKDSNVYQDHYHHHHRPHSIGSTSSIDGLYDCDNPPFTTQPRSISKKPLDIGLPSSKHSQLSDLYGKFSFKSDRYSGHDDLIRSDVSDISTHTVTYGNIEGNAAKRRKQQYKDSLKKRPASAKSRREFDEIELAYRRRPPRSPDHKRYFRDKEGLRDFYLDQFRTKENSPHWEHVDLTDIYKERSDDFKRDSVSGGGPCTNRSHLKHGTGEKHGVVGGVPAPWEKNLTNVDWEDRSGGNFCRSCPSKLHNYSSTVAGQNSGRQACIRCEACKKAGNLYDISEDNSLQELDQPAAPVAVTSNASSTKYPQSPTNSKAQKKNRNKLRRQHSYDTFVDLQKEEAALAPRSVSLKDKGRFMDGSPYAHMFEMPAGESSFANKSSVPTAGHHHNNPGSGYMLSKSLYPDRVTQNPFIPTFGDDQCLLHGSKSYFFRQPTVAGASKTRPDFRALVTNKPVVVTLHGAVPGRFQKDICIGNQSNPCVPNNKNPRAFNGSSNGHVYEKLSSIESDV
Description: as §2, §1

[2] = biological target: T5, NR1011/NR2B-D Chimera(II) (Rattus norvegicus, UniProt P35439+Q00960+Q62645, A556P/A573T/A605S/A700P/A704S/A794R/A827V/A830G/C588S/C838W/D557A/D591T/D676E/D715E/D716E/D769G/E594R/E701D/E791M/E804D/F554Y/F580L/F677Q/F681L/F709Y/F784L/F842V/F846L/G611A/G707V/G713R/G741R/G771R/G787D/G826L/I530V/I568T/I766L/I780L/I834L/I837A/K624R/K669R/K708R/L566C/L719T/L783F/M789I/N675Q/N697S/N806I/P598S/Q621E/Q662T/Q767H/Q775P/Q812K/Q845R/R593K/R682K/R693K/R712P/R742K/S539A/S570V/S599T/S633L/S678Y/S720Q/S759T/T723A/T798S/T835V/V576I/V776I); experiment: NR2 chimera study, Xenopus oocytes, Example 7; type: cell-based; settings: 100 μM PS; 300 μM NMDA; 50 μM Glycine
T5 construct: expressed in transfected cells; host or cells: Xenopus oocytes
Description: as §2, §1

NR1/NR2B = biological target: T6, NR1/NR2B (Rattus norvegicus, UniProt P35439+Q00960); experiment: NMDA-induced membrane currents, Xenopus oocytes, Example 7; type: cell-based
T6 construct: expressed in transfected cells; host or cells: Xenopus oocytes injected with mRNA
T6 sequence (Q00960 27-1482, other chains not shown): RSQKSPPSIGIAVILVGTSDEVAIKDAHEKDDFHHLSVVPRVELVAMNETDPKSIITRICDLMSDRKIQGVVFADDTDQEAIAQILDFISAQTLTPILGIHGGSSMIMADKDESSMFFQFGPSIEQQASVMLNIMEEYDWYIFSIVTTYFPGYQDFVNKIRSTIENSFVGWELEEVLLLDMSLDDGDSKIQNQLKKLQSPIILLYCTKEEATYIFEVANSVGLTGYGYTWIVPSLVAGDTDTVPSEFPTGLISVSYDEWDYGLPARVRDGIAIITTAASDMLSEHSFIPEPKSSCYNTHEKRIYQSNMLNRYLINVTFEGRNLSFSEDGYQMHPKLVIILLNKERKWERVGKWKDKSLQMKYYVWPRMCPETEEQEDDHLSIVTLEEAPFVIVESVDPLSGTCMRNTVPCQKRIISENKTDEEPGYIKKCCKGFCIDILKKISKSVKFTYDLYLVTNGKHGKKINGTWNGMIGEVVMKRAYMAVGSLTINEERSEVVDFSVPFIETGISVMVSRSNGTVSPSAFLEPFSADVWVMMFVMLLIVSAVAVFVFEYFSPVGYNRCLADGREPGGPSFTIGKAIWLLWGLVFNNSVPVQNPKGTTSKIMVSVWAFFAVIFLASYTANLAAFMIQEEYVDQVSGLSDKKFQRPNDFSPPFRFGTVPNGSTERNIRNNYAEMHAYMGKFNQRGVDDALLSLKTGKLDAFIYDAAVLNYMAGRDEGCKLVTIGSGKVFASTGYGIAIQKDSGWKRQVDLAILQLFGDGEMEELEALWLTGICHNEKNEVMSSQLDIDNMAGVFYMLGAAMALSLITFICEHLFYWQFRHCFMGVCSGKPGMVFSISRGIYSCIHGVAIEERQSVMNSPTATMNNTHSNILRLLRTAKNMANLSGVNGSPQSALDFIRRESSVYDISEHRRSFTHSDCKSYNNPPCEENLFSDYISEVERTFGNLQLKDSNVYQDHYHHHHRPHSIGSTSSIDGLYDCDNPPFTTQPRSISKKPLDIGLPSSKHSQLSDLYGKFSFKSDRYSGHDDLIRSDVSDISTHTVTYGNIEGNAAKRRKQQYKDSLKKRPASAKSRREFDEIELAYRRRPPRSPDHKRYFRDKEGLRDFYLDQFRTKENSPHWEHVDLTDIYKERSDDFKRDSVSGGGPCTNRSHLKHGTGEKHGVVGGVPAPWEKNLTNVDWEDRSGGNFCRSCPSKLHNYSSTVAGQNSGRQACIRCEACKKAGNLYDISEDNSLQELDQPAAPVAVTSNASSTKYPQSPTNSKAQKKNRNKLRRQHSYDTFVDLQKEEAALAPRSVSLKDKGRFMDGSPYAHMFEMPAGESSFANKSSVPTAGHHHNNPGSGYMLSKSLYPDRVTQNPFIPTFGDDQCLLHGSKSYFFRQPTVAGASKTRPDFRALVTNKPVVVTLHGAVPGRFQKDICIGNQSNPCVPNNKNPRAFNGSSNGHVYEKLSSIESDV
Experimental: Plasmids were linearized with appropriate restriction enzyme prior to in vitro transcription using the Message Machine kit (Ambion, Inc., Austin, Tex.).
Oocytes were injected with 50 nL of RNA solutions using an electronic microinjector (Drummond Inc., Broomall, Pa.). […] The injected oocytes were used for experiments following 1-5 days of incubation in Barth's solution at 18-20° C.
The microelectrodes were fabricated with a programmed puller (Sutter Instrument Co., Calif.) from borosilicate glass capillaries and were filled with 3 M KCl solution. The resistance of filled microelectrodes was in the range of 1-3 MΩ. […] If not mentioned otherwise, during data acquisition oocytes were clamped at a holding potential of −70 mV. The membrane current was filtered at 500 Hz and sampled at 100 Hz. Drugs were applied using a gravity driven external perfusion system. The working ,volume of the recording chamber was 30 μl and the rate of the perfusion was 50 μl/sec. The drug application lasted 10 sec and was followed by a 60 sec wash. The data acquisition and external perfusion control were done using the SuperScopeII software package (GW Instruments, Mass.). […] Peak or steady-state current measurements were normalized and expressed as a fraction of the peak or steady-state control current measurements, which were performed before and after application of every single consentration of agonist or steroid. […]

Chain of NR1/NR2C (NR1100) (Q00961 20-1237, other chains not shown): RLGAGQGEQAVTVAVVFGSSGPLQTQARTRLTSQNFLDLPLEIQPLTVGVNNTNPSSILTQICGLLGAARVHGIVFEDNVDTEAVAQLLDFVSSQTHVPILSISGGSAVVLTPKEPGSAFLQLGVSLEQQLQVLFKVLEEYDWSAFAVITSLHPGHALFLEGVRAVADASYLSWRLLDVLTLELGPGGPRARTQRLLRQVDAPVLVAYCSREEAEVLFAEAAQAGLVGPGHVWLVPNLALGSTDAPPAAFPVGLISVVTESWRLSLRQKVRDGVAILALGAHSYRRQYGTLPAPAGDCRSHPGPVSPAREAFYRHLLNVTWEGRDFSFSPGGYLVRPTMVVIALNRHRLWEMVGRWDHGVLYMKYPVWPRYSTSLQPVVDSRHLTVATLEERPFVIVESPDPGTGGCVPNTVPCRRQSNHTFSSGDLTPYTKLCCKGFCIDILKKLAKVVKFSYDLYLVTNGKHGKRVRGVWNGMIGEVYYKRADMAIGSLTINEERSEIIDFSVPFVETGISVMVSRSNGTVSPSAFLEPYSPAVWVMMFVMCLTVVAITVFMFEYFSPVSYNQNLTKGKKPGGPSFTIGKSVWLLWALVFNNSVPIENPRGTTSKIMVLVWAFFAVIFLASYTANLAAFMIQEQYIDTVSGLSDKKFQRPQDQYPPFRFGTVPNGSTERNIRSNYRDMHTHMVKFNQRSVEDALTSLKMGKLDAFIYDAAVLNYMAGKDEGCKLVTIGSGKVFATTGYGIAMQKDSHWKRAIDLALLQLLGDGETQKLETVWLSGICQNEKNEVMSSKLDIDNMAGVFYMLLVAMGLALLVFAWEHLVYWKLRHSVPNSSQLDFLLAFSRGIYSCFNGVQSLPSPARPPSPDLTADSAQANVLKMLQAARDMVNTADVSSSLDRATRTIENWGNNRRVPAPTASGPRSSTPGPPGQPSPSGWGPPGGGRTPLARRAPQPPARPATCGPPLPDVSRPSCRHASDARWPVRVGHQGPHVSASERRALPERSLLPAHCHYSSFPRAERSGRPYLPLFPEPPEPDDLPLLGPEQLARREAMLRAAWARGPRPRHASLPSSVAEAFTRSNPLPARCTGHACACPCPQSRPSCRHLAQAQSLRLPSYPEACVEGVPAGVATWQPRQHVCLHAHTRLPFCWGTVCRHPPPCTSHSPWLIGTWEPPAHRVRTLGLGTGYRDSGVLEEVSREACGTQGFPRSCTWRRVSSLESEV

| Compound | EC50 (NR1/NR2C (NR1100)) [µM] | Emax (NR1/NR2C (NR1100); read-out: 3α5βS Emax (% Change)) [%] | inhibition of inward current (NR1011/NR2Dwt) [%] | potentiation of inward current (NR1011/NR2Bwt) [%] | maximum relative current (MRC) (NR1101/NR2A) | potentiation of inward current (NR1011/NR2B-D Chimera(I)) [%] | inhibition of inward current [1] [%] | inhibition of inward current [2] [%] | potentiation of membrane current (NR1/NR2B; 100 μM PS, […] μM NMDA, 10 μM glycine) [%] | maximum potentiation (NR1/NR2B; PS 0.5 to 200 μM) [%] |
| --- | --- | --- | --- | --- | --- | --- | --- | --- | --- | --- |
| CC(=O)[C@H]1CC[C@H]2[C@@H]3CC[C@@H]4C[C@H](OS(=O)(=O)O)CC[C@]4(C)[C@H]3CC[C@]12C [3α5βS, 3α5β-pregnanolone sulfate] | 12 | -99 ± 2 | – | – | – | – | – | – | – | – |
| pregnenolone sulfate [PS] | – | – | 45.18±2.62 | 78.36±7.89 | 1.78 | 52.69±3.58 | 36.74±6.54 | 43.04±5.44 | 95±6 | 119±9 |
